According to patent US20100028889A1, “COMPANION DIAGNOSTIC ASSAYS FOR CANCER THERAPY” (ABBOTT LABORATORIES, priority 2006, published 2010):
Like-named read-outs stand apart in the source and are kept apart here.

Key:
[1] = tested on: RS4; 11; experiment: cell cytotoxicity EC50, CellTiter Glo, leukemia/lymphoma cell line; format: cell-based, human
Description: (§1) The SCLC and leukemia/lymphoma cell lines listed below were obtained from the American Type Culture Collection (Manassas, Va.), Deutsche Sammlung von Mikroorganismen und Zellkulturen (DSMZ, Braunsweig, Germany), or were the generous gift from Dr. Louis Staudt (National Cancer Institute) and were cultured as described in Tse, C., Shoemaker, A. R., Adickes, J., et al., “ABT-263: a potent and orally bioavailable Bcl-2 family inhibitor,” Cancer Res 2008; 68: 3421-3428; and Tahir, S. K., Yang, X., Anderson, M. G., et al., “Influence of Bcl-2 family members on the cellular response of small-cell lung cancer cell lines to ABT-737,” Cancer Res 2007; 67: 1176-1183.
(§2) Cells were treated at 10,000 or 50,000 cells per well for adherent or suspension cells, respectively, in 96-well microtiter plates in the presence of 10% human serum for 48 hours with or without ABT-263, in a humidified chamber with 5% CO2. ABT-263 was synthesized as previously described in Tse, C., Shoemaker, A. R., Adickes, J., et al., “ABT-263: a potent and orally bioavailable Bcl-2 family inhibitor,” Cancer Res 2008; 68: 3421-3428; and Oltersdorf, T., Elmore, S. W., Shoemaker, A. R., et al., “An inhibitor of Bcl-2 family proteins induces regression of solid tumours,” Nature 2005; 435: 677-681, and cell cytotoxicity EC50 values were assessed using CellTiter Glo (Promega, Madison Wis.).

[2] = tested on: Reh; experiment: as above; format: cell-based, human
Description: as §1, §2

[3] = tested on: Rs11380; experiment: as above; format: cell-based, human
Description: as §1, §2

[4] = tested on: CCRF-HSB2; experiment: as above; format: cell-based, human
Description: as §1, §2

[5] = tested on: MOLT-4; experiment: as above; format: cell-based, human
Description: as §1, §2

[6] = tested on: HL60; experiment: as above; format: cell-based, human
Description: as §1, §2

[7] = tested on: SuPB15; experiment: as above; format: cell-based, human
Description: as §1, §2

[8] = tested on: CEM/C1; experiment: as above; format: cell-based, human
Description: as §1, §2

[9] = tested on: WSU-NHL; experiment: as above; format: cell-based, human
Description: as §1, §2

[10] = tested on: Pfeiffer; experiment: as above; format: cell-based, human
Description: as §1, §2

[11] = tested on: SuDHL-4; experiment: as above; format: cell-based, human
Description: as §1, §2

[12] = tested on: I9.2; experiment: as above; format: cell-based, human
Description: as §1, §2

[13] = tested on: RPMI 8226; experiment: as above; format: cell-based, human
Description: as §1, §2

[14] = tested on: NCI-H711; experiment: sensitivity of SCLC cell line, procedure of Oltersdorf; format: cell-based; conditions: Homo sapiens, read-out: sensitivity class by EC50
Description: (§3) The following SCLC cell lines were obtained from ATCC (Manassis, Va.): NCI-H889, NCI-H1963, NCI-H1417, NCI-H146, NCI-H187, DMS53, NCI-H510, NCI-H209, NCI-H211, NCI-H345, NCI-H524, NCI-H69, DMS79, SHP77, NCI-H1688, NCI-H446, NCI-H740, NCI-H1048, NCI-H82, NCI-H196, SW1271, H69AR, NCI-H526, NCI-H865, NCI-H748, NCI-H711, and DMS114. All cells were cultured in the ATCC recommended media at 37° C. in a humidified atmosphere containing 5% CO2. The following leukemia and lymphoma cell lines were obtained from ATCC (Manassis, Va.): MV-4-11, RS4;11, Loucy, KG-1A, DOHH2, Rs11380, CCRF-HSB-2, CCRF-CEM, CEM/C1, Reh, SUP-B15, MOLT-4, SUDHL4, HL-60, RPMI 8226, A3, Daudi, WSU-NHL, Pfeiffer, Jurkat I 9.2, Jurkat, MEG-01, U-937, K-562, and Raji.
(§4) The 27 SCLC cell lines were tested for sensitivity to ABT-737 using the procedure described in Oltersdorf, T., “An inhibitor of Bcl-2 family proteins induces regression of solid tumours”, Nature, 435: 677-681, 2005, with a cell line classified as sensitive if its EC50<5 μM and as resistant if its EC50>5 µM. The sensitive cell line group consisted of NCI-H889, NCI-H1963, NCI-H1417, NCI-H146, DMS 53, NCI-H187, NCI-H510, NCI-H209, NCI-H345, NCI-H526, NCI-H211, NCI-H865, NCI-H524, NCI-H748, DMS 79, NCI-H69, NCI-H711, SHP 77, NCI-H1688, and the resistant cell line group was comprised of NCI-H446, NCI-H740, NCI-H1048, NCI-H82, NCI-H196, SW1271, DMS 114, and NCI-H69AR.

[15] = tested on: NCI-H748; experiment: as above; format: cell-based; conditions: Homo sapiens, read-out: sensitivity class by EC50
Description: as §3, §4

[16] = tested on: NCI-H524; experiment: as above; format: cell-based; conditions: Homo sapiens, read-out: sensitivity class by EC50
Description: as §3, §4

[17] = tested on: NCI-H865; experiment: as above; format: cell-based; conditions: Homo sapiens, read-out: sensitivity class by EC50
Description: as §3, §4

[18] = tested on: NCI-H526; experiment: as above; format: cell-based; conditions: Homo sapiens, read-out: sensitivity class by EC50
Description: as §3, §4

[19] = 10% human serum, 48 hours, read-out: EC50
[20] = Homo sapiens, read-out: Response Designation

For `CC1(C)CCC(c2ccc(Cl)cc2)=C(CN2CCN(c3ccc(C(=O)NS(=O)(=O)c4ccc(N[C@H](CCN5CCOCC5)CSc5ccccc5)c(S(=O)(=O)C(F)(F)F)c4)cc3)CC2)C1` [ABT-263, N-(4-(4-((2-(4-chlorophenyl)-5,5-dimethyl-1-cyclohex-1-en-1-yl)methyl)piperazin-1-yl)benzoyl)-4-(((1R)-3-(morpholin-4-yl)-1-((phenylsulfanyl)methyl)propyl)amino)-3-((trifluoromethyl)sulfonyl)benzenesulfonamide], the EC50 ([1]; Homo sapiens, RS4;11, read-out: Response Designation) was ≤ 4.8 µM, the EC50 ([1]; RS4, 11, 10% human serum, 48 hours, read-out: EC50) was 0.095 µM and the EC50 [2, 19] was 0.434 µM. For the same compound, the EC50 [2, 20] was ≤ 4.8 µM, the EC50 [3, 19] was 0.145 µM and the EC50 [3, 20] was ≤ 4.8 µM. For the same compound, the EC50 ([4]; CCRF-HSB-2, 10% human serum, 48 hours, read-out: EC50) was 1.15 µM, the EC50 ([4]; Homo sapiens, CCRF-HSB-2, read-out: Response Designation) was ≤ 4.8 µM and the EC50 ([5]; Homo sapiens, MOLT-4, read-out: Response Designation) was ≤ 4.8 µM. For the same compound, the EC50 ([5]; Molt-4, 10% human serum, 48 hours, read-out: EC50) was 0.385 µM, the EC50 ([6]; HL-60, 10% human serum, 48 hours, read-out: EC50) was 4.84 µM and the EC50 ([6]; Homo sapiens, HL-60, read-out: Response Designation) was ≤ 4.8 µM. For the same compound, the EC50 ([7]; Homo sapiens, SUP-B15, read-out: Response Designation) was ≤ 4.8 µM, the EC50 ([7]; SUP-B15, 10% human serum, 48 hours, read-out: EC50) was 0.26 µM and the EC50 [8, 19] was 0.063 µM. The EC50 [8, 20] was ≤ 4.8 µM, the EC50 [9, 19] was 3.55 µM and the EC50 [9, 20] was ≤ 4.8 µM. For the same compound, the EC50 [10, 19] was 8.81 µM, the EC50 [10, 20] was > 4.8 µM and the EC50 ([11]; Homo sapiens, SU-DHL-4, read-out: Response Designation) was ≤ 4.8 µM. For the same compound, the EC50 ([11]; SU-DHL-4, 10% human serum, 48 hours, read-out: EC50) was 1.04 µM, the EC50 [12, 19] was 1.8 µM and the EC50 [12, 20] was ≤ 4.8 µM. For the same compound, the EC50 [13, 19] was 1.5 µM and the EC50 [13, 20] was ≤ 4.8 µM.
With `CN(C)CC[C@H](CSc1ccccc1)Nc1ccc(S(=O)(=O)NC(=O)c2ccc(N3CCN(Cc4ccccc4-c4ccc(Cl)cc4)CC3)cc2)cc1[N+](=O)[O-]` [ABT-737, N-(4-(4-((4′-chloro(1,1′-biphenyl)-2-yl)methyl)piperazin-1-yl)benzoyl)-4-(((1R)-3-(dimethylamino)-1-((phenylsulfanyl)methyl)propyl)amino)-3-nitrobenzenesulfonamide] the EC50 [14] was < 5 µM, the EC50 [15] was < 5 µM and the EC50 [16] was < 5 µM. For the same compound, the EC50 [17] was < 5 µM and the EC50 [18] was < 5 µM.
